Measured values published in ChEMBL document CHEMBL1268953, “Discovery of novel 2-aryl-4-benzoyl-imidazoles targeting the colchicines binding site in tubulin as potential anticancer agents” (J Med Chem, 2010).
Converted amounts (≈) assume the structure as drawn.

Tests used:
Mus musculus [1] = assay: Toxicity in mouse B16-F1 cells xenografted C57/BL mouse assessed as reduction of body weight at 60 mg/kg, ip administered 7 days after tumor inoculation qd for 14 days; type: organism-based; set-up: dose 60 mg/kg, route intraperitoneal; details: in vivo
[2] = Antitumor activity against mouse B16-F1 cells xenografted in C57/BL mouse assessed as reduction of tumor growth at 60 mg/kg, ip administered 7 days after tumor inoculation qd for 14 days; type: functional; set-up: scale not given: the % may be the effect or the level left; details: route intraperitoneal
[3] = Aqueous solubility of the compound in buffer at pH 7 after 24 hrs by shake-flask method; type: physicochemical
[4] = Aqueous solubility of the compound in water after 24 hrs by shake-flask method; type: physicochemical
DU-145 = assay: cells; details: Homo sapiens, DU-145, 48 h
Description: Cytotoxicity against human DU145 cells after 48 hrs by sulforhodamine B assay

A-375 = assay: Cytotoxicity against human A375 cells after 48 hrs by sulforhodamine B assay; type: functional, cell-based; details: Homo sapiens, A-375, 48 h
PC-3 = assay: cells; details: Homo sapiens, PC-3, 48 h
Description: Cytotoxicity against human PC3 cells after 48 hrs by sulforhodamine B assay

[5] = Cytotoxicity against mouse B16-F1 cells after 48 hrs by sulforhodamine B assay; type: functional, cell-based; details: Mus musculus, B16-F1, 48 h
PPC-1 = assay: Cytotoxicity against human PPC1 cells after 48 hrs by sulforhodamine B assay; type: functional, cell-based; details: Homo sapiens, PPC-1, 48 h
LNCaP = assay: Cytotoxicity against human LNCAP cells after 48 hrs by sulforhodamine B assay; type: functional, cell-based
[6] = Cytotoxicity against human WM164 cells after 48 hrs by sulforhodamine B assay; type: functional, cell-based; details: Homo sapiens, WM164, 48 h
MDA-MB-435 = assay: cells; details: Homo sapiens, MDA-MB-435, 48 h
Description: Cytotoxicity against human MDA-MB-435 cells after 48 hrs by sulforhodamine B assay

Mus musculus [7] = assay: Toxicity in mouse B16-F1 cells xenografted C57/BL mouse assessed as reduction of body weight at 10 mg/kg, ip administered 7 days after tumor inoculation qd for 14 days; type: organism-based; set-up: dose 10 mg/kg, route intraperitoneal; details: in vivo
Mus musculus [8] = assay: Toxicity in mouse B16-F1 cells xenografted C57/BL mouse assessed as reduction of body weight at 30 mg/kg, ip administered 7 days after tumor inoculation qd for 14 days; type: organism-based; set-up: dose 30 mg/kg, route intraperitoneal; details: in vivo
[9] = Cytotoxicity against human multidrug-resistant MDA-MB-435/LCCMDR1 cells after 48 hrs by sulforhodamine B assay; type: functional, cell-based; details: MDA-MB-435, 48 h

Row | Compound | Activity (Mus musculus [1]) | Activity [2] [%] | solubility thermodynamic at 24 h [3] [µg/mL] | solubility thermodynamic at 24 h [4] [µg/mL] | IC50 (DU-145) [nM] | IC50 (A-375) [nM] | IC50 (PC-3) [nM] | IC50 [5] [nM] | IC50 (PPC-1) [nM] | IC50 (LNCaP) [nM] | IC50 [6] [nM] | IC50 (MDA-MB-435) [nM] | Activity (Mus musculus [7]) | Activity (Mus musculus [8]) | IC50 [9] [nM]
1 | CN(C)/N=N/c1[nH]cnc1C(N)=O [DACARBAZINE] | Non-toxic | 51 |  |  |  |  |  |  |  |  |  |  |  |  | 
2 | COc1cc(C(=O)c2csc(-c3ccc(N(C)C)cc3)n2)cc(OC)c1OC |  |  | 0.909 (≈ 2.28 µM) | 0.833 (≈ 2.09 µM) |  |  |  |  |  |  |  |  |  |  | 
3 | COc1cc(C(=O)c2c[nH]c(-c3ccc(N(C)C)cc3)n2)cc(OC)c1OC |  |  | 48.9 (≈ 128 µM) | 11.3 (≈ 29.6 µM) | 95 | 82 | 92 | 361 | 67 | 58 | 80 |  |  |  | 
4 | COc1ccc(/C=C\c2cc(OC)c(OC)c(OC)c2)cc1O [COMBRETASTATIN A4] |  |  | 1.04 (≈ 3.29 µM) | 2.83 (≈ 8.95 µM) |  |  |  |  |  |  |  |  |  |  | 
5 | COc1ccc(-c2nc(C(=O)c3ccc(F)cc3)c[nH]2)cc1 |  |  |  |  |  |  |  |  |  |  |  | 30 | Non-toxic | Non-toxic | 
6 | CC(=O)O[C@H]1C(=O)[C@@]2(C)[C@H]([C@H](OC(=O)c3ccccc3)[C@]3(O)C[C@H](OC(=O)[C@H](O)[C@@H](NC(=O)c4ccccc4)c4ccccc4)C(C)=C1C3(C)C)[C@]1(OC(C)=O)CO[C@@H]1C[C@@H]2O [PACLITAXEL] |  |  | 0.137 (≈ 0.16 µM) | 0.021 (≈ 0.0246 µM) |  |  |  |  |  |  |  |  |  |  | 
7 | COc1ccc(-c2ncc(C(=O)c3ccc(F)cc3)n2S(=O)(=O)c2ccccc2)cc1 |  |  |  |  | 52 | 36 | 33 | 71 | 32 | 31 | 43 | 30 |  |  | 38
8 | COc1cccc(C(=O)c2c[nH]c(-c3ccccc3)n2)c1 |  |  |  |  | > 10000 | > 10000 | > 10000 | > 10000 | > 10000 | > 10000 | > 10000 |  |  |  | 
9 | COc1cc(-c2nc(C(=O)c3ccc(F)cc3)c[nH]2)cc(OC)c1OC |  |  |  |  | > 10000 | > 10000 | > 10000 | > 10000 | > 10000 | > 10000 | > 10000 |  |  |  | 
10 | O=C(c1ccc(F)cc1)c1c[nH]c(-c2ccc(OCc3ccccc3)cc2)n1 |  |  |  |  | 60 | 93 | 79 | 117 | 43 | 44 | 90 |  |  |  | 
11 | COc1cc(C(=O)c2c[nH]c(-c3ccccc3)n2)cc(OC)c1OC |  |  |  |  | 200 | 160 | 290 | 120 | 130 | 150 | 100 |  |  |  | 
12 | COc1cc(-c2ncc(C(=O)c3ccc(F)cc3)n2S(=O)(=O)c2ccccc2)cc(OC)c1OC |  |  |  |  | > 10000 | 3840 | > 10000 | > 10000 | > 10000 | > 10000 | > 10000 |  |  |  | 
13 | COc1cccc(C(=O)c2cnc(-c3ccccc3)n2S(=O)(=O)c2ccccc2)c1 |  |  |  |  | > 10000 | > 10000 | > 10000 | > 10000 | > 10000 | > 10000 | > 10000 |  |  |  | 
